According to PMC8881610 (Nature Communications, 2022):

Legend:
Test in all cases: cAMP accumulation assay, GCGR WT, mutant or modified constructs
Type in all cases: cell-based
Design in all cases: V5 (C); 6×His (C); expressed in transfected cells; host or cells: HEK293T
GCGR [1] = biological target: GCGR (Homo sapiens, UniProt P47871, D195A); details: HEK-293T, GCGR D195A; HEK293T
Procedure: (§1) Human embryonic kidney 293 cells containing SV40 large T-antigen (HEK293T) were cultured in DMEM (Gibco) supplemented with 10% (v/v) fetal bovine serum (FBS, Gibco), 1 mM sodium pyruvate (Gibco) and 100 units/mL penicillin and 100 μg/mL streptomycin at 37 °C in 5% CO2. Chinese hamster ovary (CHO-K1) cells were cultured in F-12 (Gibco) containing 10% FBS, 100 units/mL penicillin and 100 μg/mL streptomycin at 37 °C in 5% CO2. For cAMP and receptor expression assays, HEK293T cells were seeded into 6-well cell culture plates at a density of 7 × 10^5 cells per well. After overnight incubation, cells were transfected with GIPR, GLP-1R or GCGR construct using Lipofectamine 2000 or Lipofectamine 3000 transfection reagent (Invitrogen). For whole-cell binding assay, CHO-K1 cells were seeded into 96-well fibronectin-treated cell culture plates at a density of 3 × 10^4 cells per well. After overnight incubation, cells were transfected with GIPR, GLP-1R or GCGR construct using Lipofectamine 2000 transfection reagent (Invitrogen). Following 24 h culturing, the transfected cells were ready for use. […]
(§2) For GIPR, GLP-1R and GCGR, multi-targeting agonist stimulated cAMP accumulation was measured by a LANCE Ultra cAMP kit (PerkinElmer). After 24 h culture, the transfected cells were seeded into 384-well microtiter plates at a density of 3,000 cells per well in HBSS supplemented with 5 mM HEPES, 0.1% (w/v) BSA or 0.1% (w/v) casein and 0.5 mM 3-isobutyl-1-methylxanthine. The cells were stimulated with different concentrations of peptide agonists for 40 min at RT. Eu-cAMP tracer and ULight^TM-anti-cAMP were then diluted by cAMP detection buffer and added to the plates separately to terminate the reaction. Plates were incubated at RT for 1 h and the fluorescence intensity measured at 620 nm and […] by an EnVision multilabel plate reader (PerkinElmer).

GCGR [2] = biological target: GCGR (Homo sapiens, UniProt P47871, D195A/Q142A/R199A); details: HEK-293T, GCGR Q142A/D195A/R199A; HEK293T
Chain of GCGR (Homo sapiens, UniProt P47871, D195A/Q142A/R199A) (P47871 26-477 Q142A/D195A/R199A): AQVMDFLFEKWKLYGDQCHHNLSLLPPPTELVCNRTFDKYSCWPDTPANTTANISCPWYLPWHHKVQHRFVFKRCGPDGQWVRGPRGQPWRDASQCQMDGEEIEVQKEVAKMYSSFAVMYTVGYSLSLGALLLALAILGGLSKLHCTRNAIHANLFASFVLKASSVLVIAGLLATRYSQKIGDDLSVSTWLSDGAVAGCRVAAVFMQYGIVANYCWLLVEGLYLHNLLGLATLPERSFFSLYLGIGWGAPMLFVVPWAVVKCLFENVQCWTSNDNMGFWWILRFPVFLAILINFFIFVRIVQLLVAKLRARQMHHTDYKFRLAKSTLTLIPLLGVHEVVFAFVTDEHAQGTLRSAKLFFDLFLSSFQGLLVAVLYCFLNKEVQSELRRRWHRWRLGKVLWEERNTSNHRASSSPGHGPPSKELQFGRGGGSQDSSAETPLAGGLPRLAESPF
Procedure: as §1, §2

GCGR [3] = biological target: GCGR (Homo sapiens, UniProt P47871, K205A); details: GCGR K205A, HEK293T
Chain of GCGR (Homo sapiens, UniProt P47871, K205A) (P47871 26-477 K205A): as the sequence (P47871 26-477 Q142A/D195A/R199A) above, with A117Q, A170D, A174R, K180A counted along it
Procedure: as §1, §2

GCGR [4] = biological target: GCGR (Homo sapiens, UniProt P47871, Q131A); details: GCGR Q131A, HEK293T
Chain of GCGR (Homo sapiens, UniProt P47871, Q131A) (P47871 26-477 Q131A): as the sequence (P47871 26-477 Q142A/D195A/R199A) above, with Q106A, A117Q, A170D, A174R counted along it
Procedure: as §1, §2

GCGR [5] = biological target: GCGR (Homo sapiens, UniProt P47871, Q293A); details: GCGR Q293A, HEK293T
Chain of GCGR (Homo sapiens, UniProt P47871, Q293A) (P47871 26-477 Q293A): as the sequence (P47871 26-477 Q142A/D195A/R199A) above, with A117Q, A170D, A174R, Q268A counted along it
Procedure: as §1, §2

GCGR [6] = biological target: GCGR (Homo sapiens, UniProt P47871, R199A); details: GCGR R199A, HEK293T
Chain of GCGR (Homo sapiens, UniProt P47871, R199A) (P47871 26-477 R199A): as the sequence (P47871 26-477 Q142A/D195A/R199A) above, with A117Q, A170D counted along it
Procedure: as §1, §2

GCGR [7] = biological target: GCGR (Homo sapiens, UniProt P47871, W215A); details: HEK-293T, GCGR W215A; HEK293T
Chain of GCGR (Homo sapiens, UniProt P47871, W215A) (P47871 26-477 W215A): as the sequence (P47871 26-477 Q142A/D195A/R199A) above, with A117Q, A170D, A174R, W190A counted along it
Procedure: as §1, §2

GCGR [8] = biological target: GCGR (Homo sapiens, UniProt P47871, W87A); details: HEK-293T, GCGR W87A; HEK293T
Chain of GCGR (Homo sapiens, UniProt P47871, W87A) (P47871 26-477 W87A): as the sequence (P47871 26-477 Q142A/D195A/R199A) above, with W62A, A117Q, A170D, A174R counted along it
Procedure: as §1, §2

GCGR [9] = biological target: GCGR (Homo sapiens, UniProt P47871, Y138A); details: HEK-293T, GCGR Y138A; HEK293T
Chain of GCGR (Homo sapiens, UniProt P47871, Y138A) (P47871 26-477 Y138A): as the sequence (P47871 26-477 Q142A/D195A/R199A) above, with Y113A, A117Q, A170D, A174R counted along it
Procedure: as §1, §2

GCGR [10] = biological target: GCGR (Homo sapiens, UniProt P47871, Y145A); details: HEK-293T, GCGR Y145A; HEK293T
Chain of GCGR (Homo sapiens, UniProt P47871, Y145A) (P47871 26-477 Y145A): as the sequence (P47871 26-477 Q142A/D195A/R199A) above, with A117Q, Y120A, A170D, A174R counted along it
Procedure: as §1, §2

GCGR [11] = biological target: GCGR (Homo sapiens, UniProt P47871, Y202A); details: HEK-293T, GCGR Y202A; HEK293T
Chain of GCGR (Homo sapiens, UniProt P47871, Y202A) (P47871 26-477 Y202A): as the sequence (P47871 26-477 Q142A/D195A/R199A) above, with A117Q, A170D, A174R, Y177A counted along it
Procedure: as §1, §2

[12] = read-out: cAMP pEC50 (converted)

Chain of GCGR (Homo sapiens, UniProt P47871, D195A) (P47871 26-477 D195A): as the sequence (P47871 26-477 Q142A/D195A/R199A) above, with A117Q, A174R counted along it

## CCCCCCCCCCCCCCCC(=O)N[C@@H](CCC(=O)NCCCC[C@H](NC(=O)[C@H](CC(=O)O)NC(=O)[C@H](CO)NC(=O)[C@@H](NC(=O)[C@H](Cc1ccccc1)NC(=O)[C@@H](NC(=O)CNC(=O)[C@H](CCC(N)=O)NC(=O)C(C)(C)NC(=O)[C@@H](N)Cc1c[nH]cn1)[C@@H](C)O)[C@@H](C)O)C(=O)N[C@@H](CO)C(=O)N[C@@H](CCCCN)C(=O)N[C@@H](Cc1ccc(O)cc1)C(=O)N[C@@H](CC(C)C)C(=O)N[C@@H](CC(=O)O)C(=O)N[C@@H](CCC(=O)O)C(=O)N[C@@H](CCCNC(=N)N)C(=O)N[C@@H](C)C(=O)N[C@@H](C)C(=O)N[C@@H](CCC(N)=O)C(=O)N[C@@H](CC(=O)O)C(=O)N[C@@H](Cc1ccccc1)C(=O)N[C@H](C(=O)N[C@@H](CCC(N)=O)C(=O)N[C@@H](Cc1c[nH]c2ccccc12)C(=O)N[C@@H](CC(C)C)C(=O)N[C@@H](CC(C)C)C(=O)N[C@@H](CC(=O)O)C(=O)NCC(=O)NCC(=O)N1CCC[C@H]1C(=O)N[C@@H](CO)C(=O)N[C@@H](CO)C(=O)NCC(=O)N[C@@H](C)C(=O)N1CCC[C@H]1C(=O)N1CCC[C@H]1C(=O)N1CCC[C@H]1C(=O)N[C@@H](CO)C(N)=O)C(C)C)C(=O)O [Peptide 20]
GCGR [1]
  Emax: 102 ± 2.1%
GCGR [2]
  Emax: 100 ± 2.37%
GCGR [3]; [12]
  EC50: 13.2 pM
GCGR [3]; HEK-293T
  Emax: 101 ± 1.28%
GCGR [4]; [12]
  EC50: 28.2 pM
GCGR [4]; HEK-293T
  Emax: 101 ± 1.59%
GCGR [5]; [12]
  EC50: 8.32 pM
GCGR [5]; HEK-293T
  Emax: 99.5 ± 1.63%
GCGR [6]; [12]
  EC50: 12.9 pM
GCGR [6]; HEK-293T
  Emax: 99.7 ± 1.47%
GCGR [7]
  Emax: 99.6 ± 2.02%
GCGR [8]
  Emax: 98.1 ± 1.54%
GCGR [9]
  Emax: 101 ± 2.39%
GCGR [10]
  Emax: 103 ± 1.79%
GCGR [11]
  Emax: 103 ± 2.48%
